In patent US10626144B2, “Peptide derivatives and uses thereof” (Nosopharm, priority 2014, dated 2020):
Numbered stars: 1 amine (or outer) side, 2 acyl side, 3 side chain; on linkers, the order of the positions; unused ones are H or OH. Square brackets hold non-standard residues; d marks the D form. Peptide text beside a SMILES is read from it. * marks the point of attachment. X3 = NC[C@H](OC(=O)C(F)(F)F)[C@H](N[*:1])C(=O)[*:2]; Phe(3,4-(OMe)2) = COc1ccc(C[C@H](N)C(=O)O)cc1OC; Phe(3-Me) = Cc1cccc(C[C@H](N)C(=O)O)c1; Dab(3S-OH) = NC[C@H](O)[C@H](N)C(=O)O; 2Pal = N[C@@H](Cc1ccccn1)C(=O)O; ΔZArg = N=C(N)NCC/C=C(\N)C(=O)O; Gly(cPr) = N[C@H](C(=O)O)C1CC1; Lys(Me) = CNCCCC[C@H](N)C(=O)O; NMeK = CN[C@@H](CCCCN)C(=O)O; dOrn = NCCC[C@@H](N)C(=O)O; NMeA = CN[C@@H](C)C(=O)O; Aze = O=C(O)[C@@H]1CCN1; Dab = NCC[C@H](N)C(=O)O; NH(CH2)5NH2 = NCCCCCN*; NH(CH2)4NH2 = NCCCCN*

Columns and labels:
Experiment in all cases: MIC, broth microdilution (CLSI), reference strain
Conditions in all cases: CAMHB
[1] = test system: Escherichia coli ATCC 25922
[2] = test system: Staphylococcus aureus ATCC 13709
[3] = test system: Acinetobacter baumannii ATCC 19606
[4] = test system: Pseudomonas aeruginosa ATCC 27853

Structure (SMILES) | Ec: MIC Escherichia coli ATCC 25922 [1] | Sa: MIC Staphylococcus aureus ATCC 13709 [2] | Ab: MIC Acinetobacter baumannii ATCC 19606 [3] | Pa: MIC Pseudomonas aeruginosa ATCC 27853 [4]
CN[C@@H](CCCCN)C(=O)N[C@@H](CCN)C(=O)N[C@@H](C)C(=O)NCC(=O)N[C@H](CCCN)C(=O)N1CCC[C@H]1C(=O)N[C@@H](Cc1cnc[nH]1)C(=O)N[C@@H](CCCCN)C(=O)N/C(=C\CCNC(=N)N)C(=O)N[C@@H](CCCCN)C(=O)NCCCCN [14.9] (H-[NMeK][Dab]AG[dOrn]PHK[ΔZArg]K-{NH(CH2)4NH2}) | − (>32 μg/mL) | ++ (≤8 μg/mL) | − (>32 μg/mL) | − (>32 μg/mL)
N=C(N)NCC/C=C(\NC(=O)[C@H](CCCCN)NC(=O)[C@H](Cc1cnc[nH]1)NC(=O)[C@@H]1CCCN1C(=O)[C@@H](CCCN)NC(=O)CNC(=O)[C@@H](NC(=O)[C@@H](NC(=O)[C@@H](N)CCCCN)[C@@H](O)CN)[C@@H](O)CN)C(=O)NCCCCCN [22.2] (H-K[Dab(3S-OH)][Dab(3S-OH)]G[dOrn]PHK[ΔZArg]-{NH(CH2)5NH2}) | ++ (≤8 μg/mL) | ++ (≤8 μg/mL) | − (>32 μg/mL) | + (≤32 μg/mL)
COc1ccc(C[C@H](NC(=O)[C@@H]2CCCN2C(=O)[C@@H](CCCN)NC(=O)CNC(=O)[C@@H](NC(=O)[C@@H](NC(=O)[C@@H](N)CCCCN)[C@@H](O)CN)[C@@H](O)CN)C(=O)N[C@@H](CCCCN)C(=O)N/C(=C\CCNC(=N)N)C(=O)O)cc1OC [22.34] (H-K[Dab(3S-OH)][Dab(3S-OH)]G[dOrn]P[Phe(3,4-(OMe)2)]K[ΔZArg]-OH) | ++ (≤8 μg/mL) | ++ (≤8 μg/mL) | − (>32 μg/mL) | − (>32 μg/mL)
NCCCCNC(=O)[C@H](CCCCN)NC(=O)[C@@H](CCCCN)NC(=O)[C@H](CCCCN)NC(=O)[C@H](Cc1cnc[nH]1)NC(=O)[C@@H]1CCCN1C(=O)[C@@H](CCCN)NC(=O)CNC(=O)[C@@H](NC(=O)[C@@H](NC(=O)[C@@H](N)CCCCN)[C@@H](O)CN)[C@@H](O)CN [22.21] (H-K[Dab(3S-OH)][Dab(3S-OH)]G[dOrn]PHK[dK]K-{NH(CH2)4NH2}) | − (>32 μg/mL) | ++ (≤8 μg/mL) | − (>32 μg/mL) | − (>32 μg/mL)
N=C(N)NCC/C=C(\NC(=O)[C@H](CCCCN)NC(=O)[C@H](Cc1cnc[nH]1)NC(=O)[C@@H]1CCCN1C(=O)[C@@H](CCCN)NC(=O)CNC(=O)[C@H](CCN)NC(=O)[C@H](CCN)NC(=O)[C@@H](N)CCCCN)C(=O)N[C@@H](CCCCN)C(=O)NCCCCN [11.1] (H-K[Dab][Dab]G[dOrn]PHK[ΔZArg]K-{NH(CH2)4NH2}) | − (>32 μg/mL) | ++ (≤8 μg/mL) | − (>32 μg/mL) | − (>32 μg/mL)
N=C(N)NCC/C=C(\NC(=O)[C@H](CCCCN)NC(=O)[C@H](Cc1c[nH]c2ccccc12)NC(=O)[C@@H]1CCCN1C(=O)[C@@H](CCCN)NC(=O)CNC(=O)[C@H](CCN)NC(=O)[C@@H](NC(=O)[C@@H](N)CCCCN)[C@@H](O)CN)C(=O)O [21.12] (H-K[Dab(3S-OH)][Dab]G[dOrn]PWK[ΔZArg]-OH) | ++ (≤8 μg/mL) | ++ (≤8 μg/mL) | − (>32 μg/mL) | − (>32 μg/mL)
Cc1cccc(C[C@H](NC(=O)[C@@H]2CCCN2C(=O)[C@@H](CCCN)NC(=O)CNC(=O)[C@H](CCN)NC(=O)[C@@H](NC(=O)[C@@H](N)CCCCN)[C@@H](O)CN)C(=O)N[C@@H](CCCCN)C(=O)N/C(=C\CCNC(=N)N)C(=O)O)c1 [21.8] (H-K[Dab(3S-OH)][Dab]G[dOrn]P[Phe(3-Me)]K[ΔZArg]-OH) | ++ (≤8 μg/mL) | ++ (≤8 μg/mL) | − (>32 μg/mL) | − (>32 μg/mL)
N=C(N)NCCC[C@H](NC(=O)[C@H](CCCCN)NC(=O)[C@H](Cc1cnc[nH]1)NC(=O)[C@@H]1CCCN1C(=O)[C@@H](CCCN)NC(=O)CNC(=O)[C@@H](NC(=O)[C@@H](NC(=O)[C@@H](N)CCCCN)[C@@H](O)CN)[C@@H](O)CN)C(=O)N[C@@H](CCCCN)C(=O)NCCCCN [22.17] (H-K[Dab(3S-OH)][Dab(3S-OH)]G[dOrn]PHKRK-{NH(CH2)4NH2}) | + (≤32 μg/mL) | ++ (≤8 μg/mL) | − (>32 μg/mL) | − (>32 μg/mL)
N=C(N)NCC/C=C(\NC(=O)[C@H](CCCCN)NC(=O)[C@H](Cc1cnc[nH]1)NC(=O)[C@@H]1CCCN1C(=O)[C@@H](CCCN)NC(=O)CNC(=O)[C@@H](NC(=O)[C@@H](NC(=O)[C@H](N)CCCCN)[C@@H](O)CN)[C@@H](O)CN)C(=O)N[C@@H](CCCCN)C(=O)NCCCCN [22.6] (H-[dK][Dab(3S-OH)][Dab(3S-OH)]G[dOrn]PHK[ΔZArg]K-{NH(CH2)4NH2}) | + (≤32 μg/mL) | ++ (≤8 μg/mL) | − (>32 μg/mL) | − (>32 μg/mL)
C[C@H](NC(=O)/C(=C/CCNC(=N)N)NC(=O)[C@H](CCCCN)NC(=O)[C@H](Cc1cnc[nH]1)NC(=O)[C@@H]1CCCN1C(=O)[C@@H](CCCN)NC(=O)CNC(=O)[C@@H](NC(=O)[C@@H](NC(=O)[C@@H](N)CCCCN)[C@@H](O)CN)[C@@H](O)CN)C(=O)NCCCCN [22.10] (H-K[Dab(3S-OH)][Dab(3S-OH)]G[dOrn]PHK[ΔZArg]A-{NH(CH2)4NH2}) | ++ (≤8 μg/mL) | ++ (≤8 μg/mL) | − (>32 μg/mL) | + (≤32 μg/mL)

Further lines, results first:

Ec: MIC Escherichia coli ATCC 25922 [1] | Sa: MIC Staphylococcus aureus ATCC 13709 [2] | Ab: MIC Acinetobacter baumannii ATCC 19606 [3] | Pa: MIC Pseudomonas aeruginosa ATCC 27853 [4] | Structure (SMILES)
+ (≤32 μg/mL) | ++ (≤8 μg/mL) | − (>32 μg/mL) | − (>32 μg/mL) | N=C(N)NCC/C=C(\NC(=O)[C@H](CCCCN)NC(=O)[C@H](Cc1cnc[nH]1)NC(=O)[C@@H]1CCCN1C(=O)[C@@H](CCCN)NC(=O)CNC(=O)[C@@H](NC(=O)[C@@H](NC(=O)[C@@H](N)CCCCN)[C@@H](O)CN)C1CC1)C(N)=O [213.1] (H-K[Dab(3S-OH)][Gly(cPr)]G[dOrn]PHK[ΔZArg]-NH2)
+ (≤32 μg/mL) | + (≤32 μg/mL) | − (>32 μg/mL) | − (>32 μg/mL) | C[C@H](NC(=O)[C@@H](NC(=O)[C@@H](N)CCCCN)[C@@H](O)CN)C(=O)NCC(=O)N[C@H](CCCN)C(=O)N1CCC[C@H]1C(=O)N[C@@H](Cc1ccccn1)C(=O)N[C@@H](CCCCN)C(=O)N/C(=C\CCNC(=N)N)C(=O)O [24.106] (H-K[Dab(3S-OH)]AG[dOrn]P[2Pal]K[ΔZArg]-OH)
+ (≤32 μg/mL) | ++ (≤8 μg/mL) | − (>32 μg/mL) | − (>32 μg/mL) | N=C(N)NCC/C=C(\NC(=O)[C@H](CCCCN)NC(=O)[C@H](Cc1cnc[nH]1)NC(=O)[C@@H]1CCCN1C(=O)[C@@H](CCCN)NC(=O)CNC(=O)[C@@H](NC(=O)[C@@H](NC(=O)[C@@H](N)CCCCN)[C@H](CN)OC(=O)C(F)(F)F)[C@@H](O)CN)C(=O)N[C@@H](CCCCN)C(=O)NCCCCN [32.1] (H-K[X3][Dab(3S-OH)]G[dOrn]PHK[ΔZArg]K-{NH(CH2)4NH2})
+ (≤32 μg/mL) | + (≤32 μg/mL) | − (>32 μg/mL) | − (>32 μg/mL) | CNCCCC[C@H](N)C(=O)N[C@H](C(=O)N[C@@H](C)C(=O)NCC(=O)N[C@H](CCCN)C(=O)N1CCC[C@H]1C(=O)N[C@@H](Cc1cnc[nH]1)C(=O)N[C@@H](CCCCN)C(=O)N/C(=C\CCNC(=N)N)C(=O)O)[C@@H](O)CN [24.149] (H-[Lys(Me)][Dab(3S-OH)]AG[dOrn]PHK[ΔZArg]-OH)
+ (≤32 μg/mL) | ++ (≤8 μg/mL) | − (>32 μg/mL) | − (>32 μg/mL) | C[C@H](NC(=O)[C@@H](NC(=O)[C@@H](N)CCCCN)[C@@H](O)CN)C(=O)NCC(=O)N[C@H](CCCN)C(=O)N(C)[C@@H](C)C(=O)N[C@@H](Cc1cnc[nH]1)C(=O)N[C@@H](CCCCN)C(=O)N/C(=C\CCNC(=N)N)C(N)=O [24.65] (H-K[Dab(3S-OH)]AG[dOrn][NMeA]HK[ΔZArg]-NH2)
+ (≤32 μg/mL) | + (≤32 μg/mL) | − (>32 μg/mL) | − (>32 μg/mL) | C[C@H](NC(=O)[C@@H](NC(=O)[C@@H](N)CCCCN)[C@@H](O)CN)C(=O)NCC(=O)N[C@H](CCCN)C(=O)N1CC[C@H]1C(=O)N[C@@H](Cc1cnc[nH]1)C(=O)N[C@@H](CCCCN)C(=O)N/C(=C\CCNC(=N)N)C(=O)O [24.73] (H-K[Dab(3S-OH)]AG[dOrn][Aze]HK[ΔZArg]-OH)
+ (≤32 μg/mL) | + (≤32 μg/mL) | − (>32 μg/mL) | − (>32 μg/mL) | N=C(N)NCC/C=C(\NC(=O)[C@H](CCCCN)NC(=O)[C@H](Cc1cnc[nH]1)NC(=O)[C@@H]1CCCN1C(=O)[C@@H](CCCN)NC(=O)CNC(=O)[C@H](CO)NC(=O)[C@@H](NC(=O)[C@@H](N)CCCCN)[C@@H](O)CN)C(=O)O [26.2] (H-K[Dab(3S-OH)]SG[dOrn]PHK[ΔZArg]-OH)
